Measured values taken from patent US6440984B1, “Use of aryl-substituted pyrimidines as insecticidal and acaricidal agents” (BASF Aktiengesellschaft, priority 1998, dated 2002).

Tests used:
[1] = system: Tetranychus Urticae (OP-resistant strain), 2-spotted Spider Mite (TSM); assay: Two-spotted spider mite (TSM) plant-dip test, mortality after 2 days; type: in vivo; settings: rating scale
Procedure: (§1) Test solutions are prepared by dissolving the test compound in a 35% acetone in water mixture to give a concentration of 10,000 ppm. Subsequent dilutions are made with water as needed.
Tetranychus Urticae (OP-resistant strain), 2-spotted Spider Mite (TSM)
Sieva lima bean plants with primary leaves expanded to 7-8 cm are selected and cut back to one plant per pot. A small piece is cut from an infested leaf taken from the main colony and placed on each leaf of the test plants. This is done about 2 hours before treatment to allow the mites to move over to the test plant to lay eggs. The size of the cut, infested leaf is varied to obtain about 100 mites per leaf. At the time of test treatment, the piece of leaf used to transfer the mites is removed and discarded. The newly-infested plants are dipped in the test solution for 3 seconds with agitation and set in the hood to dry. After 2 days, one leaf is removed and mortality counts are made.

Cotton Aphid (CA) = assay: Cotton aphid (CA) foliar spray test, essentially the bean aphid method; type: in vivo; settings: rating scale
Procedure: as §1
(§2) Pots containing single nasturtium plants (Tropaeolum sp.) about 5 cm tall are infested with about 100-200 aphids one day before the test. Each pot is sprayed with the test solution for 2 revolutions of a 4 rpm turntable in a hood. The spray is directed to give complete coverage of the plants and aphids. The sprayed pots are set on their sides on white trays and held for 2 days, following which mortality estimates are made. Essentially the same method is used with respect to cotton aphid (CA).

[2] = system: Aphis Fabae, Mixed Instar, Bean Aphid (BA); assay: Bean aphid (BA) foliar spray test, mortality after 2 days; type: in vivo; settings: rating scale
Procedure: as §1
Aphis Fabae, Mixed Instar, Bean Aphid (BA)
as §2

[3] = system: Diabrotica Virgifera Virgifera Leconte, 3rd Instar Western Corn Rootworm (WCR); assay: Western corn rootworm (WCR) soil test, mortality at 5 days; type: in vivo; settings: rating scale
Procedure: Diabrotica Virgifera Virgifera Leconte, 3rd Instar Western Corn Rootworm (WCR) One cc of fine talc is placed in a 30 mL wide-mouth screw-top glass jar. One mL of the appropriate acetone test solution is pipetted onto the talc so as to provide 1.25 mg of active ingredient per jar. The jars are set under a gentle air flow until the acetone is evaporated. The dried talc is loosened, 1 cc of millet seed is added to serve as food for the insects and 25 mL of moist soil is added to each jar. The jar is capped and the contents thoroughly mixed mechanically. Following this, ten 3rd instar rootworms are added to each jar and the jars are loosely capped to allow air exchange for the larvae. The treatments are held for 5 days when mortality counts are made. Missing larvae are presumed dead, since they decompose rapidly and can not be found. The concentrations of active ingredient used in this test correspond approximately to 50 kg/ha.

[4] = system: Spodoptera Eridania, 3rd Instar Larvae, Southern Armyworm (SAW); assay: Southern armyworm (SAW) leaf-dip test, observations at 5 days; type: in vivo; settings: Southern Army Worm, rating scale
Procedure: as §1
Spodoptera Eridania, 3rd Instar Larvae, Southern Armyworm (SAW)
A Sieva lima bean leaf expanded to 7-8 cm in length is dipped in the test solution with agitation for 3 seconds and allowed to dry in a hood. The leaf is then placed in a 100×10 mm petri dish containing a damp filter paper on the bottom and ten 3rd instar caterpillars. At 5 days, observations are made of mortality, reduced feeding, or any interference with normal molting.

Structure (SMILES)	TSM AD-FOLIAR 300 (ppm) [1]	CA-FOLIAR 300 (ppm) (Cotton Aphid (CA))	BA AD-FOLIAR 300 (ppm) [2]	WCR 2^ND-SOIL 50 (ppm) [3]	also measured
Fc1ccc(Oc2ncc(Cl)c(-c3ccc(Cl)c(Cl)c3)n2)cc1C(F)(F)F [Compound 93, 2-(3-Trifluoromethyl-4-fluorophenoxy)-4-(3,4-dichlorophenyl)-5-chloropyrimidine]	–	–	–	–	melting point: 90 to 92 °C
FC(F)(F)c1cccc(Oc2nccc(-c3cccc(Cl)c3)n2)c1 [Compound 67]	A (A 0-45% kill)	C (C 76-100% kill)	–	–	–
FC(F)(F)c1cc(-c2ccnc(Oc3ccccc3)n2)cc(Cl)c1Cl [Compound 63]	A (A 0-45% kill)	C (C 76-100% kill)	A (A 0-45% kill)	–	–
Fc1cccc(Oc2nccc(-c3cc(Cl)c(Cl)c(C(F)(F)F)c3)n2)c1 [Compound 64]	A (A 0-45% kill)	A (A 0-45% kill)	–	C (C 76-100% kill)	–
Fc1cccc(-c2ccnc(Oc3ccc(F)c(C(F)(F)F)c3)n2)c1 [Compound 68]	B (B 45-75% kill)	C (C 76-100% kill)	–	–	–
Fc1ccc(-c2ccnc(Oc3cccc(C(F)(F)F)c3)n2)cc1C(F)(F)F [Compound 71]	A (A 0-45% kill)	B (B 45-75% kill)	C (C 76-100% kill)	–	–
Fc1ccc(Oc2nccc(-c3cccc(Cl)c3)n2)cc1C(F)(F)F [Compound 66]	A (A 0-45% kill)	A (A 0-45% kill)	–	C (C 76-100% kill)	–
CCc1cnc(Oc2cccc(C(F)(F)F)c2)nc1-c1cccc(C(F)(F)F)c1 [Compound 157]	–	–	–	–	pest or weed control at 50 ppm ([3]; Diabrotica virgifera, 120 h, read-out: WCR 2^ND-SOIL 50 (ppm)): 76 to 100%; pest or weed control at 1000 ppm ([4]; Spodoptera eridania, foliar, 120 h, read-out: SAW 2^ND-FOLIAR 1000 (ppm)): 0 to 45%; pest or weed control at 300 ppm ([2]; Aphis fabae, 48 h, read-out: BA AD-FOLIAR 300 (ppm)): 45 to 75%; pest or weed control at 300 ppm ([1]; Tetranychus urticae, 48 h, read-out: TSM AD-FOLIAR 300 (ppm)): 45 to 75%
Fc1cc(-c2ccnc(Oc3ccc(F)c(C(F)(F)F)c3)n2)ccc1Cl [Compound 78]	B (B 45-75% kill)	B (B 45-75% kill)	–	–	–
Fc1ccc(Oc2nccc(-c3cccc(OC(F)(F)F)c3)n2)cc1C(F)(F)F [Compound 37]	A (A 0-45% kill)	–	A (A 0-45% kill)	B (B 45-75% kill)	SAW 2^ND-FOLIAR 1000 (ppm) [4]: C (C 76-100% kill)
